What was measured:
HCV NS3-NS4A protease = target: T1, HCV NS3-NS4A protease (Hepatitis C virus genotype 1a, UniProt P27958); assay: HCV Ki Assay (enzyme, Example 5); format: biochemical; settings: Ki values, tested according to Example 5 (enzyme); 5AB substrate, tNS3 with KK4A
T1 construct: The buffer, KK4A, DTT, and tNS3 were combined
Procedure: HPLC Microbore Method for Separation of 5AB Substrate and Products
NH2-Glu-Asp-Val-Val-(alpha)Abu-Cys-Ser-Met-Ser-Tyr-COOH
A stock solution of 20 mM 5AB (or concentration of your choice) was made in DMSO w/0.2M DTT. This was stored in aliquots at −20 C.
Buffer: 50 mM HEPES, pH 7.8; 20% glycerol; 100 mM NaCl
Total assay volume was 100 μL
The buffer, KK4A, DTT, and tNS3 were combined; distributed 78 μL each into wells of 96 well plate. This was incubated at 30 C for ˜5-10 min.
2.5 μL of appropriate concentration of test compound was dissolved in DMSO (DMSO only for control) and added to each well. This was incubated at room temperature for 15 min.
Initiated reaction by addition of 20 μL of 250 μM 5AB substrate (25 μM concentration is equivalent or slightly lower than the Km for 5AB).
Incubated for 20 min at 30 C.
Terminated reaction by addition of 25 μL of 10% TFA
Transferred 120 μL aliquots to HPLC vials
Separated SMSY product from substrate and KK4A by the following method:
Microbore Separation Method:
Instrumentation: Agilent 1100
Column thermostated chamber G1316A
Diode array detector G1315A
Solvent A=HPLC grade water+0.1% TFA
Solvent B=HPLC grade acetonitrile+0.1% TFA
Stop time: 17 min Post-run time: 10 min.

[1] = test system: Cells containing hepatitis C virus (HCV) replicon; assay: HCV Replicon Cell Assay (Example 4); format: cell-based; settings: 48 h, tested according to Example 4 (cell), 50% inhibition of HCV RNA level, 48-hour incubation
Procedure: HCV Replicon Cell Assay Protocol
Cells containing hepatitis C virus (HCV) replicon were maintained in DMEM containing 10% fetal bovine serum (FBS), 0.25 mg per ml of G418, with appropriate supplements (media A).
On day 1, replicon cell monolayer was treated with a trypsin:EDTA mixture, removed, and then media A was diluted into a final concentration of 100,000 cells per ml wit. 10,000 cells in 100 ul were plated into each well of a 96-well tissue culture plate, and cultured overnight in a tissue culture incubator at 37° C.
On day 2, compounds (in 100% DMSO) were serially diluted into DMEM containing 2% FBS, 0.5% DMSO, with appropriate supplements (media B). The final concentration of DMSO was maintained at 0.5% throughout the dilution series.
Media on the replicon cell monolayer was removed, and then media B containing various concentrations of compounds was added. Media B without any compound was added to other wells as no compound controls.
Cells were incubated with compound or 0.5% DMSO in media B for 48 hours in a tissue culture incubator at 37° C. At the end of the 48-hour incubation, the media was removed, and the replicon cell monolayer was washed once with PBS and stored at −80° C. prior to RNA extraction.
Culture plates with treated replicon cell monolayers were thawed, and a fixed amount of another RNA virus, such as Bovine Viral Diarrhea Virus (BVDV) was added to cells in each well, RNA extraction reagents (such as reagents from RNeasy kits) were added to the cells immediately to avoid degradation of RNA. Total RNA was extracted according the instruction of manufacturer with modification to improve extraction efficiency and consistency. Finally, total cellular RNA, including HCV replicon RNA, was eluted and stored at −80° C. until further processing.
A Taqman real-time RT-PCR quantification assay was set up with two sets of specific primers and probe. One was for HCV and the other was for BVDV. Total RNA extractants from treated HCV replicon cells was added to the PCR reactions for quantification of both HCV and BVDV RNA in the same PCR well. Experimental failure was flagged and rejected based on the level of BVDV RNA in each well. The level of HCV RNA in each well was calculated according to a standard curve run in the same PCR plate. The percentage of inhibition or decrease of HCV RNA level due to compound treatment was calculated using the DMSO or no compound control as 0% of inhibition. The IC50 (concentration at which 50% inhibition of HCV RNA level is observed) was calculated from the titration curve of any given compound.

T1 sequence (P27958 1658-1711): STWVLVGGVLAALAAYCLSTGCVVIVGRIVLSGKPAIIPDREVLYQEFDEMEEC
T1 sequence (P27958 1027-1208): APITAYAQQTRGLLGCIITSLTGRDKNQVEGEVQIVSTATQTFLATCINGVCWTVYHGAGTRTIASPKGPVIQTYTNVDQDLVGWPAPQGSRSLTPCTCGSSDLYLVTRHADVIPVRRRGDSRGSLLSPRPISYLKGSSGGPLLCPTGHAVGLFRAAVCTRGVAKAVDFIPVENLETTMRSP

| Structure (SMILES) | Ki (HCV NS3-NS4A protease) [nM] | IC50 [1] [nM] |
| --- | --- | --- |
| CCC[C@H](NC(=O)[C@@H]1C[C@@H](Oc2ncnc3ccccc23)CN1C(=O)[C@@H](NC(=O)[C@@H](NC(=O)c1cnccn1)C1CCCCC1)C(C)(C)C)C(=O)C(=O)NC1CC1 [Compound 42] | < 100 | < 500 |
| CCC[C@H](NC(=O)[C@@H]1C[C@@H](Oc2cccc(Cl)c2)CN1C(=O)[C@@H](NC(=O)[C@@H](NC(=O)c1cnccn1)C1CCCCC1)C(C)(C)C)C(=O)C(=O)NC1CC1 [Compound 66] | 100 to 300 | < 500 |
| CCC[C@H](NC(=O)[C@@H]1C[C@@H](Oc2ccc([N+](=O)[O-])cc2)CN1C(=O)[C@@H](NC(=O)[C@@H](NC(=O)c1cnccn1)C1CCCCC1)C(C)(C)C)C(=O)C(=O)NC1CC1 [Compound 44] | < 100 | < 500 |
| CCC[C@H](NC(=O)C1C[C@@H](Oc2cc(Cl)ccc2Cl)CN1C(=O)[C@@H](NC(=O)[C@@H](NC(=O)c1cnccn1)C1CCCCC1)C(C)(C)C)C(=O)C(=O)NC1CC1 (some centres unmarked) [Compound 3] | 100 to 300 | 500 to 1000 |
| CCC[C@H](NC(=O)[C@@H]1C[C@@H](Oc2ccc(S(=O)(=O)NC)cc2)CN1C(=O)[C@@H](NC(=O)[C@@H](NC(=O)c1cnccn1)C1CCCCC1)C(C)(C)C)C(=O)C(=O)NC1CC1 [Compound 48] | 100 to 300 | < 500 |
| CCC[C@H](NC(=O)[C@@H]1C[C@@H](Oc2ccc(Cl)c3ccccc23)CN1C(=O)[C@@H](NC(=O)[C@@H](NC(=O)c1cnccn1)C1CCCCC1)C(C)(C)C)C(=O)C(=O)NC1CC1 [Compound 40] | < 100 | < 500 |
| CCC[C@H](NC(=O)[C@@H]1C[C@@H](Oc2ccnc3cc(C(F)(F)F)ccc23)CN1C(=O)[C@@H](NC(=O)[C@@H](NC(=O)c1cnccn1)C1CCCCC1)C(C)(C)C)C(=O)C(=O)NC1CC1 [Compound 67] | < 100 | < 500 |
| CCC[C@H](NC(=O)C1C[C@@H](Oc2ccccc2C(F)(F)F)CN1C(=O)[C@@H](NC(=O)[C@@H](NC(=O)c1cnccn1)C1CCCCC1)C(C)(C)C)C(=O)C(=O)NC1CC1 (some centres unmarked) [Compound 6] | > 300 | > 1000 |
| CCC[C@H](NC(=O)[C@@H]1C[C@@H](Oc2ccncn2)CN1C(=O)[C@@H](NC(=O)[C@@H](NC(=O)c1cnccn1)C1CCCCC1)C(C)(C)C)C(=O)C(=O)NC1CC1 [Compound 50] | 100 to 300 | < 500 |
| CCC[C@H](NC(=O)C1C[C@@H](Oc2ccccc2F)CN1C(=O)[C@@H](NC(=O)[C@@H](NC(=O)c1cnccn1)C1CCCCC1)C(C)(C)C)C(=O)C(=O)NC1CC1 (some centres unmarked) [Compound 4] | 100 to 300 | 500 to 1000 |
| CCC[C@H](NC(=O)[C@@H]1C[C@@H](Oc2cc(OC)cc(OC)c2)CN1C(=O)[C@@H](NC(=O)[C@@H](NC(=O)c1cnccn1)C1CCCCC1)C(C)(C)C)C(=O)C(=O)NC1CC1 [Compound 24] | < 100 | < 500 |
| CCC[C@H](NC(=O)C1C[C@@H](Oc2c(F)cccc2F)CN1C(=O)[C@@H](NC(=O)[C@@H](NC(=O)c1cnccn1)C1CCCCC1)C(C)(C)C)C(=O)C(=O)NC1CC1 (some centres unmarked) [Compound 10] | 100 to 300 | 500 to 1000 |
| CCC[C@H](NC(=O)[C@@H]1C[C@@H](Oc2cccc(S(=O)(=O)NC)c2)CN1C(=O)[C@@H](NC(=O)[C@@H](NC(=O)c1cnccn1)C1CCCCC1)C(C)(C)C)C(=O)C(=O)NC1CC1 [Compound 47] | > 300 | < 500 |
| CCC[C@H](NC(=O)[C@@H]1C[C@@H](Oc2ccc(F)cc2)CN1C(=O)[C@@H](NC(=O)[C@@H](NC(=O)c1cnccn1)C1CCCCC1)C(C)(C)C)C(=O)C(=O)NC1CC1 [Compound 43] | < 100 | < 500 |
| CCC[C@H](NC(=O)[C@@H]1C[C@@H](Oc2ccc(NC(C)=O)cc2)CN1C(=O)[C@@H](NC(=O)[C@@H](NC(=O)c1cnccn1)C1CCCCC1)C(C)(C)C)C(=O)C(=O)NC1CC1 [Compound 51] | < 100 | > 1000 |
| CCC[C@H](NC(=O)[C@@H]1C[C@@H](Oc2ccc(C(=O)N3CCNCC3)cc2)CN1C(=O)[C@@H](NC(=O)[C@@H](NC(=O)c1cnccn1)C1CCCCC1)C(C)(C)C)C(=O)C(=O)NC1CC1 [Compound 71] | 100 to 300 | > 1000 |
| CCC[C@H](NC(=O)[C@@H]1C[C@@H](Oc2ccc(Cl)c(Cl)c2)CN1C(=O)[C@@H](NC(=O)[C@@H](NC(=O)c1cnccn1)C1CCCCC1)C(C)(C)C)C(=O)C(=O)NC1CC1 [Compound 53] | < 100 | < 500 |
| CCC[C@H](NC(=O)[C@@H]1C[C@@H](Oc2ccc(Cl)cn2)CN1C(=O)[C@@H](NC(=O)[C@@H](NC(=O)c1cnccn1)C1CCCCC1)C(C)(C)C)C(=O)C(=O)NC1CC1 [Compound 59, Pyrazine-2-carboxylic acid ({1-[4-(5-chloro-pyridin-2-yloxy)-2-(1-cyclopropylaminooxalyl-butylcarbamoyl)-pyrrolidine-1-carbonyl]-2,2-dimethyl-propylcarbamoyl}-cyclohexyl-methyl)-amide] | < 100 | < 500 |
| CCC[C@H](NC(=O)C1C[C@@H](Oc2cccc(F)c2F)CN1C(=O)[C@@H](NC(=O)[C@@H](NC(=O)c1cnccn1)C1CCCCC1)C(C)(C)C)C(=O)C(=O)NC1CC1 (some centres unmarked) [Compound 7] | 100 to 300 | < 500 |
| CCC[C@H](NC(=O)[C@@H]1C[C@@H](Oc2ccc(OC)c3ccccc23)CN1C(=O)[C@@H](NC(=O)[C@@H](NC(=O)c1cnccn1)C1CCCCC1)C(C)(C)C)C(=O)C(=O)NC1CC1 [Compound 38] | < 100 | < 500 |
| CCC[C@H](NC(=O)[C@@H]1C[C@@H](Oc2ccc(F)c(F)c2)CN1C(=O)[C@@H](NC(=O)[C@@H](NC(=O)c1cnccn1)C1CCCCC1)C(C)(C)C)C(=O)C(=O)NC1CC1 [Compound 54] | < 100 | < 500 |
| CCC[C@H](NC(=O)[C@@H]1C[C@@H](Oc2ccc(-c3ccccc3)cc2)CN1C(=O)[C@@H](NC(=O)[C@@H](NC(=O)c1cnccn1)C1CCCCC1)C(C)(C)C)C(=O)C(=O)NC1CC1 [Compound 19] | < 100 | < 500 |
| CCC[C@H](NC(=O)C1C[C@@H](Oc2cc(Cl)cc(Cl)c2)CN1C(=O)[C@@H](NC(=O)[C@@H](NC(=O)c1cnccn1)C1CCCCC1)C(C)(C)C)C(=O)C(=O)NC1CC1 (some centres unmarked) [Compound 12] | 100 to 300 | < 500 |
| CCC[C@H](NC(=O)C1C[C@@H](Oc2cc(F)ccc2F)CN1C(=O)[C@@H](NC(=O)[C@@H](NC(=O)c1cnccn1)C1CCCCC1)C(C)(C)C)C(=O)C(=O)NC1CC1 (some centres unmarked) [Compound 8] | 100 to 300 | 500 to 1000 |
| CCC[C@H](NC(=O)[C@@H]1C[C@@H](Oc2ccc([N+](=O)[O-])cn2)CN1C(=O)[C@@H](NC(=O)[C@@H](NC(=O)c1cnccn1)C1CCCCC1)C(C)(C)C)C(=O)C(=O)NC1CC1 [Compound 26] | 100 to 300 | < 500 |

— patent US8217048B2, “Inhibitors of serine proteases, particularly HCV NS3-NS4A protease” (Vertex Pharmaceuticals Incorporated, priority 2003, dated 2012)
